Target: T1, AIMP2-DX2 (Homo sapiens, UniProt Q13155)
T1 sequence (Q13155 1-251 isoform Q13155-2): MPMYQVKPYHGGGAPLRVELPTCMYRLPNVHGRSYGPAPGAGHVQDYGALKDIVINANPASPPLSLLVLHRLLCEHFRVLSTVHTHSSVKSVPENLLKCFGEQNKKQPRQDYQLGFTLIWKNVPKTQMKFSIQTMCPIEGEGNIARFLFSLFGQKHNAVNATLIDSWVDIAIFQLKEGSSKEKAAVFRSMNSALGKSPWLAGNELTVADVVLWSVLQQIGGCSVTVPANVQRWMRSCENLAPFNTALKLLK
Assay: DX2-nanoluciferase assay (DX2 expression change) in transfected A549 cells
Details: A549, 4 h, read-out: DX-Nanoluciferase activity (40 μM), 40 μM, 4 hours treatment, A549 cells transfected with nanoluciferase-DX2; inhibitory effect on AIMP2-DX2 expression
Experimental: After cloning DX2 into a plasmid expressing nanoluciferase, the plasmid was transfected into A549 cells. Transfected cells were seeded 1×10^4 per well in a 96-well plate and stabilized for 12 hours. […] Cell viability was measured by the MTT method after 72 hours of treatment with each concentration of the compound in A549 cells.

Row | inhibition at 40 µM | SMILES
1 | -11.1 ± 19.2% | Cc1ccc(S(=O)(=O)N[C@@H](CC(=O)O)C(=O)Nc2ccc(N3CCOCC3)cc2)cc1 [Compound 145, (S)-3-(4-Methylphenylsulfonamido)-4-(4-morpholinophenylamino)-4-oxobutanoic acid]
2 | -17.7 ± 16.6% | Cc1ccc(S(=O)(=O)N[C@@H](Cc2c[nH]c3ccccc23)C(=O)NCc2cccs2)cc1 [Compound 150, (S)-3-(1H-indol-3-yl)-2-(4-methylphenylsulfonamido)-N-(thiophen-2-ylmethyl)propanamide]
3 | 26.9 ± 6.7% | CC(=O)Nc1cccc(S(=O)(=O)N[C@@H](CC(C)C)C(=O)N2CCOCC2)c1 [Compound 153, (S)—N-(3-(N-(4-methyl-1-morpholino-1-oxopentan-2-yl)sulfamoyl)phenyl)acetamide]
4 | 40.5 ± 7.7% | CC(C)C[C@H](NC(=O)Nc1ccccc1)C(=O)OCc1ccccc1 [Compound 154, (S)-Benzyl 4-methyl-2-(3-phenylureido)pentanoate]

Tested on: A549 cells
Assay: Cell viability by MTT method in A549 cells
Type: cell-based
Design: concentration or dose not given beside the values
Details: 72 hours treatment

Row | SMILES | Cell Viability (% inhibition) (A549)
5 | COc1ccc(CNC(=O)CC[C@H](NS(=O)(=O)c2ccc(C)cc2)C(=O)Nc2ccc(N3CCOCC3)cc2)cc1 [Compound 171, (S)—N^5-(4-Methoxybenzyl)-2-(4-methylphenylsulfonamido)-N^1-(4-morpholinophenyl)pentanediamide] | 40.19 ± 4.29%
6 | Cc1ccc(S(=O)(=O)N[C@@H](CCC(=O)Nc2ccccc2)C(=O)Nc2ccc(N3CCOCC3)cc2)cc1 [Compound 172, (S)-2-(4-Methylphenylsulfonamido)-N^1-(4-morpholinophenyl)-N^5-phenylpentanediamide] | −2.14 ± ? .1%
7 | Cc1ccc(S(=O)(=O)N[C@@H](CCC(=O)N2CCOCC2)C(=O)Nc2ccc(N3CCOCC3)cc2)cc1 [Compound 173, (S)-2-(4-Methylphenylsulfonamido)-5-morpholino-N-(4-morpholinophenyl)-5-oxopentanamide] | 0.1 ± 5.51%
8 | Cc1ccc(S(=O)(=O)N[C@@H](CCC(=O)Nc2ccc(F)cc2)C(=O)Nc2ccc(N3CCOCC3)cc2)cc1 [Compound 174, (S)—N^5-(4-fluorophenyl)-2-(4-methylphenylsulfonamido)-N^1-(4-morpholinophenyl)pentanediamide] | 10.8 ± 2.26%
9 | Cc1ccc(S(=O)(=O)N[C@@H](CCC(=O)Nc2ccc(C(C)(C)C)cc2)C(=O)Nc2ccc(N3CCOCC3)cc2)cc1 [Compound 175, (S)—N^5-(4-tert-butylphenyl)-2-(4-methylphenylsulfonamido)-N^1-(4-morpholinophenyl)pentanediamide] | 28.4 ± 4.82%
10 | Cc1ccc(S(=O)(=O)N[C@@H](CC(=O)Nc2ccc([N+](=O)[O-])cc2)C(=O)Nc2ccc(N3CCOCC3)cc2)cc1 [Compound 177, (S)-2-(4-Methylphenylsulfonamido)-N^1-(4-morpholinophenyl)-N^4-(4-nitrophenyl)succinamide] | 53.91 ± 0.92%
11 | O=C([C@H](Cc1c[nH]c2ccccc12)NS(=O)(=O)c1ccc(Br)cc1)n1ccc(-c2ccccc2)n1 [Compound 185, (S)—N-(3-(1H-indol-3-yl)-1-oxo-1-(3-phenyl-1H-pyrazol-1-yl)propan-2-yl)-4-bromobenzenesulfonamide] | 13.09 ± 18.13%
12 | CCCCCCCCCCCC(=O)NNC(=O)[C@H](Cc1c[nH]c2ccccc12)NS(=O)(=O)c1ccc(Br)cc1 [Compound 194, (S)-4-Bromo-N-(1-(2-dodecanoylhydrazinyl)-3-(1H-indol-3-yl)-1-oxopropan-2-yl)benzenesulfonamide] | 86.99 ± 0.6%
13 | Cc1ccc(S(=O)(=O)N[C@@H](Cc2c[nH]c3ccccc23)C(=O)NC23CC4CC(CC(C4)C2)C3)cc1 [Compound 204, (S)—N-((3R,5R,7R)-adamantan-1-yl)-3-(1H-indol-3-yl)-2-(4-methylphenylsulfonamido)propanamide] | 78.9 ± 2.62%
14 | COc1ccc(CCNC(=O)[C@H](Cc2c[nH]c3ccccc23)NS(=O)(=O)c2ccc(C)cc2)cc1 [Compound 205, (S)-3-(1H-indol-3-yl)-N-(4-methoxyphenethyl)-2-(4-methylphenylsulfonamido)propanamide] | 65.64 ± 5.37%
15 | Cc1ccc(S(=O)(=O)N[C@@H](Cc2c[nH]c3ccccc23)C(=O)NCCCc2ccccc2)cc1 [Compound 206, (S)-3-(1H-indol-3-yl)-2-(4-methylphenylsulfonamido)-N-(3-phenylpropyl)propanamide] | 67.48 ± 2.35%
16 | Cc1ccc(S(=O)(=O)N[C@@H](Cc2c[nH]c3ccccc23)C(=O)NCCc2ccc(F)cc2)cc1 [Compound 207, (S)—N-(4-fluorophenethyl)-3-(1H-indol-3-yl)-2-(4-methylphenylsulfonamido)propanamide] | 64.02 ± 2.15%
17 | Cc1ccc(S(=O)(=O)N[C@@H](Cc2c[nH]c3ccccc23)C(=O)Nc2nc(-c3ccc(C(F)(F)F)cc3)cs2)cc1 [Compound 208, (S)-3-(1H-indol-3-yl)-2-(4-methylphenylsulfonamido)-N-(4-(4-(trifluoromethyl)phenyl)thiazol-2-yl)propanamide] | 82.89 ± 1.06%
18 | O=C(NCCc1c[nH]c2ccccc12)[C@H](Cc1c[nH]c2ccccc12)NS(=O)(=O)c1ccc(Br)cc1 [Compound 209, (S)—N-(2-(1H-indol-3-yl)ethyl)-2-(4-bromophenylsulfonamido)-3-(1H-indol-3-yl)propanamide] | 89.27 ± 0.77%
19 | COc1ccc(-c2csc(NC(=O)[C@H](Cc3c[nH]c4ccccc34)NC(=O)c3ccc(C)cc3)n2)cc1 [Compound 210, (S)—N-(3-(1H-indol-3-yl)-1-((4-(4-methoxyphenyl)thiazol-2-yl)amino)-1-oxopropan-2-yl)-4-methylbenzamide] | 40.83 ± 8.13%
20 | COc1ccc(-c2csc(NC(=O)[C@H](Cc3c[nH]c4ccccc34)NS(=O)(=O)c3ccc(Cl)cc3)n2)cc1 [Compound 211, (S)-2-(4-Chlorophenylsulfonamido)-3-(1H-indol-3-yl)-N-(4-(4-methoxyphenyl)thiazol-2-yl)propanamide] | 83.3 ± 1.04%
21 | COc1ccc(-c2csc(NC(=O)[C@H](Cc3c[nH]c4ccccc34)NS(=O)(=O)c3ccc(C(F)(F)F)cc3)n2)cc1 [Compound 212, (S)-3-(1H-indol-3-yl)-N-(4-(4-methoxyphenyl)thiazol-2-yl)-2-(4-(trifluoromethyl)phenylsulfonamido)propanamide] | 84.25 ± 0.99%
22 | COc1ccc(-c2csc(NC(=O)[C@H](Cc3c[nH]c4ccccc34)NS(=O)(=O)c3ccc(F)cc3)n2)cc1 [Compound 213, (S)-2-(4-Fluorophenylsulfonamido)-3-(1H-indol-3-yl)-N-(4-(4-methoxyphenyl)thiazol-2-yl)propanamide] | 83.29 ± 1.04%
23 | C[C@]12C[C@@H]3C[C@](C)(C1)C[C@@](NC(=O)[C@H](Cc1c[nH]c4ccccc14)NS(=O)(=O)c1ccc(Br)cc1)(C3)C2 [Compound 214, (S)-2-(4-Bromophenylsulfonamido)-N-((1r,3R,5S,7S)-3,5-dimethyladamantan-1-yl)-3-(1H-indol-3-yl)propanamide] | 86.93 ± 0.26%
24 | Cc1ccc(C(=O)N[C@@H](Cc2c[nH]c3ccccc23)C(=O)OCc2ccccc2)cc1 [Compound 216, (S)-Benzyl 3-(1H-indol-3-yl)-2-(4-methylbenzamido)propanoate] | 69.96 ± 2.46%
25 | COC(=O)c1ccc(-c2csc(NC(=O)[C@H](Cc3c[nH]c4ccccc34)NS(=O)(=O)c3ccc(C)cc3)n2)cc1 [Compound 227, (S)-Methyl 4-(2-(3-(1H-indol-3-yl)-2-(4-methylphenylsulfonamido)propanamido)thiazol-4-yl)benzoate] | 84.63 ± 0.51%
26 | Cc1ccc(S(=O)(=O)N[C@@H](Cc2c[nH]c3ccccc23)C(=O)Nc2nc(-c3ccc(C(=O)O)cc3)cs2)cc1 [Compound 228, (S)-4-(2-(3-(1H-indol-3-yl)-2-(4-methylphenylsulfonamido)propanamido)thiazol-4-yl)benzoic acid] | 48.75 ± 5.85%
27 | COc1ccc(-c2csc(NC(=O)[C@H](CNc3nc4ccccc4o3)NS(=O)(=O)c3ccc(C)cc3)n2)cc1 [Compound 229, (S)-3-(Benzo[d]oxazol-2-ylamino)-N-(4-(4-methoxyphenyl)thiazol-2-yl)-2-(4-methylphenylsulfonamido)propanamide] | 74.91 ± 2.05%
28 | COc1ccc(-c2csc(NC(=O)[C@H](CNC(=O)c3ccccc3)NS(=O)(=O)c3ccc(C)cc3)n2)cc1 [Compound 230, (S)—N-(3-((4-(4-methoxyphenyl)thiazol-2-yl)amino)-2-(4-methylphenylsulfonamido)-3-oxopropyl)benzamide] | 71.56 ± 1.67%
29 | COc1ccc(-c2csc(NC(=O)[C@H](CNC(=O)c3cccnc3)NS(=O)(=O)c3ccc(C)cc3)n2)cc1 [Compound 231, (S)—N-(3-((4-(4-methoxyphenyl)thiazol-2-yl)amino)-2-(4-methylphenylsulfonamido)-3-oxopropyl)nicotinamide] | 47.63 ± 5.89%
30 | COc1ccc(-c2csc(NC(=O)[C@H](CNC(=O)c3cncnc3)NS(=O)(=O)c3ccc(C)cc3)n2)cc1 [Compound 232, (S)—N-(3-((4-(4-methoxyphenyl)thiazol-2-yl)amino)-2-(4-methylphenylsulfonamido)-3-oxopropyl)pyrimidine-5-carboxamide] | 40.98 ± 2.65%
